# In patent publication US20230079819A1, “COMPOUNDS AND USES THEREOF” (Foghorn Therapeutics Inc., priority 2019, published 2023):
# Like-named read-outs stand apart in the source and are kept apart here.
# Columns and labels:
# [1] = target: T1, BRM (Homo sapiens, UniProt P51531); assay: ATPase catalytic activity of BRM, ADP-Glo in vitro biochemical assay; conditions: 30 nM BRM, 400 μM ATP
# T1 construct: made in house; host or cells: High Five insect cells
# [2] = target: T2, BRG-1 (Homo sapiens, UniProt P51532); assay: ATPase catalytic activity of BRG-1, ADP-Glo in vitro biochemical assay; conditions: 30 nM BRG-1, 400 μM ATP
# T2 construct: made in house; host or cells: High Five insect cells
# [3] = ATPase catalytic activity, read-out: BRM IP50
# [4] = ATPase catalytic activity, read-out: BRG1 IP50
# [5] = ATPase catalytic activity, read-out: BRM IP50 (μM)*
# [6] = ATPase catalytic activity, read-out: BRG1 IP50 (μM)*
# T1 sequence (P51531 whole entry): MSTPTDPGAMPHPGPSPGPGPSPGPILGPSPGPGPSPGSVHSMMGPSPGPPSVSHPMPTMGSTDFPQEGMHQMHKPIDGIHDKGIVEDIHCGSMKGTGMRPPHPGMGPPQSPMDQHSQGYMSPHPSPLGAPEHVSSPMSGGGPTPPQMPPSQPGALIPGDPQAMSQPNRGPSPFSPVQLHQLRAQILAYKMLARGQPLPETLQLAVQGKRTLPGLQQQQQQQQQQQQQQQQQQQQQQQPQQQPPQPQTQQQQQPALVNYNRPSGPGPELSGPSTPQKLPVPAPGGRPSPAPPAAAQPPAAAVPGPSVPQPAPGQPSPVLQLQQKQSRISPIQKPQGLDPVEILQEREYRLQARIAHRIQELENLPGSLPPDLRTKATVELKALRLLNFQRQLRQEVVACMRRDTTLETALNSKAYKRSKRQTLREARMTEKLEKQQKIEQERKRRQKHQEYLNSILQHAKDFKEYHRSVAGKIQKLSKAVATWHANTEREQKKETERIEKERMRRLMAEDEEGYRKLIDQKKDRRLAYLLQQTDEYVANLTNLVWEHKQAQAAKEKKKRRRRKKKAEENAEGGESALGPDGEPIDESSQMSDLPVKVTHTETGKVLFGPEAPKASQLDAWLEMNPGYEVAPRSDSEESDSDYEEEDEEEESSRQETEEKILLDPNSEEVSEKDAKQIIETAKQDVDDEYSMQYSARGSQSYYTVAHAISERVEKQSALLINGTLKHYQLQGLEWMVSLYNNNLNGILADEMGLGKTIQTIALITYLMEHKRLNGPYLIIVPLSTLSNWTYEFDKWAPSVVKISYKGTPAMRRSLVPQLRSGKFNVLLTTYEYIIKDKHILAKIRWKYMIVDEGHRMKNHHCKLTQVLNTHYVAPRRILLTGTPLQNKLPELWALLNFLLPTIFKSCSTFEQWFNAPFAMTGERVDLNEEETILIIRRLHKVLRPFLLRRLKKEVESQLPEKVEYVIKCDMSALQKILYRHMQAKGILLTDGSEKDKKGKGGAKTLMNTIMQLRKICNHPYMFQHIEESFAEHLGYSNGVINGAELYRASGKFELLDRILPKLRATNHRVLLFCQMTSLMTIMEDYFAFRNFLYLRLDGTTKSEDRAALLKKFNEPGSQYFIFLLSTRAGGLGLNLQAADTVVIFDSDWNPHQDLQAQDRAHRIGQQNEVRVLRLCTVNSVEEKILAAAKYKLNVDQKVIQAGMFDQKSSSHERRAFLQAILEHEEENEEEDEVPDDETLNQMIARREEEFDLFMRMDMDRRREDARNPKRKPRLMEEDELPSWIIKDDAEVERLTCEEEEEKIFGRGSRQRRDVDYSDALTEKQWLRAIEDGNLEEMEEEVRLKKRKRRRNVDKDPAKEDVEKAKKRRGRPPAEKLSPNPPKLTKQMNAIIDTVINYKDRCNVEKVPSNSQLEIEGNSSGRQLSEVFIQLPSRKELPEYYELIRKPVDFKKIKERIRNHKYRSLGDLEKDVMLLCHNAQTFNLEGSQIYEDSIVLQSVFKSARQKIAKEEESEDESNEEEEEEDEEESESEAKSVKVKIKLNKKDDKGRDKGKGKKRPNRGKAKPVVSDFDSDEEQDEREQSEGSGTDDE
# T2 sequence (P51532 whole entry): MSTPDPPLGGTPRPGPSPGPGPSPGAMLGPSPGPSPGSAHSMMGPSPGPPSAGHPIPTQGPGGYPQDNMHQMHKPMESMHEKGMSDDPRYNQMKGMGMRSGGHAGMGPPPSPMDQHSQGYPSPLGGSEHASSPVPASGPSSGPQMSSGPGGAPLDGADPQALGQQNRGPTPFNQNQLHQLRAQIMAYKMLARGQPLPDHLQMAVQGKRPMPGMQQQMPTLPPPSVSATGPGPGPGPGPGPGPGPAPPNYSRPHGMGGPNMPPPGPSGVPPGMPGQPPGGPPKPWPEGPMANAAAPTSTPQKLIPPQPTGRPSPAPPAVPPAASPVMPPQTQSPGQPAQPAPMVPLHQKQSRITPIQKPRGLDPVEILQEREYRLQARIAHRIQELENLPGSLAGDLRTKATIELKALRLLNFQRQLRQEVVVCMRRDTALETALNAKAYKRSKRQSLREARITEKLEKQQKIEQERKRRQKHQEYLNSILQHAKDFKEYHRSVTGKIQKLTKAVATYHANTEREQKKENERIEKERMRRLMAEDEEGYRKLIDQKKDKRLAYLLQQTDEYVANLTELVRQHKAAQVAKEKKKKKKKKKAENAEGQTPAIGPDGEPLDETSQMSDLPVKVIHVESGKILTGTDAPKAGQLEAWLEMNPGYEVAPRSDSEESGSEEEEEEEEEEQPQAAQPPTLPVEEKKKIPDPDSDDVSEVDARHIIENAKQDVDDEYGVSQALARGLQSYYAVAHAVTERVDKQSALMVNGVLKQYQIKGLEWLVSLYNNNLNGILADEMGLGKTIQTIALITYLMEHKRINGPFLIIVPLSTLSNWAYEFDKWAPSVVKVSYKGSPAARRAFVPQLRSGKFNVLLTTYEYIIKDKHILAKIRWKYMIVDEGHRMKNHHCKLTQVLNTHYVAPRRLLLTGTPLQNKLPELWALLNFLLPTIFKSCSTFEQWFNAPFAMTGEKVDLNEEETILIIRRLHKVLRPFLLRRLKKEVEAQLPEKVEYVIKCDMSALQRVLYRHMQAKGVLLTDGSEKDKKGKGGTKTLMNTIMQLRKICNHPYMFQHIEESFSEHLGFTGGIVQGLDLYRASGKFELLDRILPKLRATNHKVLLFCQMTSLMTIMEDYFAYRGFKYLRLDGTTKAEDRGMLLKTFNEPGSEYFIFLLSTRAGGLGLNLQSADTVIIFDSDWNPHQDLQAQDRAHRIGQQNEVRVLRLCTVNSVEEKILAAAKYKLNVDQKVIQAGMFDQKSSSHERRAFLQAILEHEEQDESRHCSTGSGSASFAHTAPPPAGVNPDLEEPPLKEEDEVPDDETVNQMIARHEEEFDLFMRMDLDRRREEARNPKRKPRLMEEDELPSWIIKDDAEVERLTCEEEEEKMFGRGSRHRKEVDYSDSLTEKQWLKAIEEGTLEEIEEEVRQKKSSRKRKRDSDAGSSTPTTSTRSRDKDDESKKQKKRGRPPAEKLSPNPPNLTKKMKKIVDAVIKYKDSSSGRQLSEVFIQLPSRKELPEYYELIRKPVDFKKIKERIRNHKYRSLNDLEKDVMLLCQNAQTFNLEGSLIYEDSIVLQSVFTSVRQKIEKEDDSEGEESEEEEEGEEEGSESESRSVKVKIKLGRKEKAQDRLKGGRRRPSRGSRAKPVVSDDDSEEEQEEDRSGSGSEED
"IC50 [1, 3] [µM]","IC50 [2, 4] [µM]","IC50 [1, 5] [µM]","IC50 [2, 6] [µM]",Structure (SMILES),also measured
< 0.01,< 0.01,,,C[C@@H]1CN(c2cccc(-c3csc(NC(=O)CNC(=O)c4ccn(C(C)(C)C(F)F)c4)n3)n2)C[C@H](C)O1 [Compound 748],
,,< 0.01,> 0.01,COC[C@H](NC(=O)c1ccn(S(C)(=O)=O)c1)C(=O)Nc1nc(-c2ccc(F)c(N3C[C@@H](C)O[C@@H](C)C3)n2)cs1 [Compound 377],
> 0.01,> 0.01,,,"Cc1cncc(-c2cccc(-c3csc(NC(=O)CNC(=O)c4ccn(C5(C)COC5)c4)n3)n2)n1 [Compound 523, 1-(3-methyloxetan-3-yl)-N-[2-[[4-[6-(6-methylpyrazin-2-yl)-2-pyridyl]thiazol-2-yl]amino]-2-oxo-ethyl]pyrrole-3-carboxamide]",
,,< 0.01,> 0.01,C[C@@H]1CN(c2nccc(-c3csc(NC(=O)CNC(=O)c4ccn(C(C)(C)C)c4)n3)n2)C[C@H](C)O1 [Compound 326],
> 0.01,> 0.01,,,CC(C)(C)n1ccc(C(=O)NCC(=O)Nc2nc(-c3cccc(N4CCCC(N5CCCC5)C4)n3)cs2)c1 (stereo not shown) [Compound 636],
> 0.1,> 0.1,,,"CC(C)(C)n1ccc(C(=O)NCC(=O)Nc2nc(-c3cccc(N4CCC5(CC4)COC5)c3)cs2)c1 [Compound 397, N-(2-((4-(3-(2-oxa-7-azaspiro[3.5]nonan-7-yl)phenyl)thiazol-2-yl)amino)-2-oxoethyl)-1-(tert-butyl)-1H-pyrrole-3-carboxamide]",
,,> 0.01,> 0.01,C[C@@H]1CCCN(c2cccc(-c3csc(NC(=O)CNC(=O)c4ccn(S(C)(=O)=O)c4)n3)c2)C1 [Compound 238],
,,> 0.01,> 0.1,CS(=O)(=O)n1ccc(C(=O)NCC(=O)Nc2nc(-c3cccc(N4CC(n5ccnc5)C4)c3)cs2)c1 [Compound 172],
,,> 0.01,> 0.01,C[C@H]1C[C@H](C)CN(c2cccc(-c3csc(NC(=O)CNC(=O)c4ccn(S(C)(=O)=O)c4)n3)c2)C1 (racemic) [Compound 187],
,,> 0.01,> 0.01,CS(=O)(=O)n1ccc(C(=O)NCC(=O)Nc2nc(-c3cccc(N4CCC(F)CC4)n3)cs2)c1 [Compound 339],
,,< 0.01,< 0.01,C[C@@H]1CN(c2nc(-c3csc(NC(=O)CNC(=O)c4ccn(S(C)(=O)=O)c4)n3)ccc2F)C[C@H](C)O1 [Compound 379],
> 0.01,> 0.01,,,CS(=O)(=O)n1ccc(C(=O)NCC(=O)Nc2nc(-c3ccnc(OC4CC4)c3)cs2)c1 [Compound 489],

# The next lines start with the compound.
Structure (SMILES),"IC50 [1, 3] [µM]","IC50 [2, 4] [µM]","IC50 [1, 5] [µM]","IC50 [2, 6] [µM]",also measured
CS(=O)(=O)n1ccc(C(=O)NCC(=O)Nc2nc(-c3cccc(N4CCC[C@H](F)C4)c3)cs2)c1 [Compound 208],,,> 0.01,> 0.01,
CS(=O)(=O)n1ccc(C(=O)NCC(=O)Nc2nc(-c3cccc(N4CCO[C@H](CO)C4)c3)cs2)c1 [Compound 450],> 0.01,> 0.01,,,
C[C@@H]1CN(c2cccc(-c3csc(NC(=O)CNC(=O)c4ccn(C(C)(C)C#N)n4)n3)n2)C[C@H](C)O1 [Compound 786],,,,,IC50 ([1]; read-out: BRM IP50): < 0.01 µM; IC50 ([2]; read-out: BRG1 IP50): > 0.01 µM
C[C@H](NC(=O)c1ccn(C2(C#N)CC2)c1)C(=O)Nc1nc(-c2cccc(-c3ccn(C)n3)c2)cs1 [Compound 588],> 0.01,> 0.1,,,
CS(=O)(=O)n1ccc(C(=O)NCC(=O)Nc2nc(-c3ccc(F)c(OC4CC4)c3F)cs2)c1 [Compound 612],> 0.01,> 0.01,,,
Cc1cc(-c2cccc(-c3csc(NC(=O)CNC(=O)c4ccn(S(C)(=O)=O)c4)n3)c2)on1 [Compound 296],,,> 0.01,> 0.01,
C[C@H](NC(=O)c1ccn(C2(C#N)CC2)c1)C(=O)Nc1nc(-c2ccc3ccn(C)c(=O)c3c2)cs1 [Compound 532],> 0.01,> 0.01,,,
COC[C@H](NC(=O)c1ccn(S(C)(=O)=O)c1)C(=O)Nc1nc(-c2cc(F)c3c(c2)CCN3C)cs1 [Compound 758],< 0.01,< 0.01,,,
"CS(=O)(=O)n1ccc(C(=O)N[C@@H](CO)C(=O)Nc2nc(-c3cccc(-c4ccncc4)c3)cs2)c1 [Compound 69, (S)—N-(3-hydroxy-1-oxo-1-((4-(3-(pyridin-4-yl)phenyl)thiazol-2-yl)amino)propan-2-yl)-1-(methylsulfonyl)-1H-pyrrole-3-carboxamide]",,,< 0.01,< 0.01,
C[C@H](NC(=O)c1ccn(S(C)(=O)=O)c1)C(=O)Nc1nc(-c2cccc(-c3ccn(C)n3)c2)cs1 [Compound 591],> 0.01,> 0.01,,,
CS(=O)(=O)n1ccc(C(=O)NCC(=O)Nc2nc(-c3cc(Cl)cc(OC4CC4)c3)cs2)c1 [Compound 260],,,> 0.01,> 0.01,
